What follows are molecules tested on KM12-luc cells (assay: Cell proliferation and growth inhibition assay (CCK-8) in KM12-luc). Details: KM12-Luc, 72 h, KM12-luc cells, treated with test compounds for 72 hrs, CCK-8 viability; read-out: NTRK IC50 in KM12-luc.
Format: cell-based
Procedure, shortened: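 IC50 values were fitted by sigmoidal dose-response non-linear regression of CCK-8 OD450 absorbance after 1-4 hrs with reagent. Culture media were IMDM for MV-4-11, RPMI 1640 for H1975 and DMEM for KM12-luc, each with 10% FBS at 37 °C, 5% CO2.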

SMILES	IC50
CCN(CCN(C)C)c1ccc(Nc2ncc(C(F)(F)F)c(-c3c[nH]c4cc(F)ccc34)n2)cc1N [Compound 332, N^1-(2-(dimethylamino)ethyl)-N^1-ethyl-N^4-(4-(6-fluoro-1H-indol-3-yl)-5-(trifluoromethyl)pyrimidin-2-yl)benzene-1,2,4-triamine]	127 nM
CCn1cc(-c2nc(Nc3ccc(N(C)CCN(C)C)c(NC(C)=O)c3)ncc2C(F)(F)F)c2cc(F)ccc21 [Compound 391, N-(2-((2-(dimethylamino)ethyl)(methyl)amino)-5-((4-(1-ethyl-5-fluoro-1H-indol-3-yl)-5-(trifluoromethyl)pyrimidin-2-yl)amino)phenyl)acetamide]	50 nM
COc1cccc2c1c(-c1nc(Nc3ccc(N(C)CCN(C)C)c(NC(C)=O)c3)ncc1F)cn2C [Compound 271, N-(2-((2-(dimethylamino)ethyl)(methyl)amino)-5-((5-fluoro-4-(4-methoxy-1-methyl-1H-indol-3-yl)pyrimidin-2-yl)amino)phenyl)acetamide]	1480 nM
CCN(CCN(C)C)c1ccc(Nc2nc(-c3cn(C)c4ccccc34)c3cc[nH]c3n2)cc1NC [Compound 197, N^1-(2-(dimethylamino)ethyl)-N^1-ethyl-N^2-methyl-N^4-(4-(1-methyl-1H-indol-3-yl)-7H-pyrrolo[2,3-d]pyrimidin-2-yl)benzene-1,2,4-triamine]	376 nM
CN(C)CCN(C)c1ccc(Nc2nc(-c3cn(C)c4ccccc34)c3cc[nH]c3n2)cc1S(C)(=O)=O [Compound 206, N^1-(2-(dimethylamino)ethyl)-N^1-methyl-N^4-(4-(1-methyl-1H-indol-3-yl)-7H-pyrrolo[2,3-d]pyrimidin-2-yl)-2-(methylsulfonyl)benzene-1,4-diamine]	176 nM
CNc1cc(Nc2ncc(F)c(-c3cn(C)c4ccccc34)n2)ccc1N(C)CCN(C)C [Compound 263, N^1-(2-(dimethylamino)ethyl)-N^4-(5-fluoro-4-(1-methyl-1H-indol-3-yl)pyrimidin-2-yl)-N^1,N^2-dimethylbenzene-1,2,4-triamine]	704 nM
CC(=O)Nc1cc(Nc2nc3c(c(-c4cn(C)c5ccccc45)n2)CCO3)cc(F)c1N(C)CCN(C)C [Compound 258b, N-(2-((2-(dimethylamino)ethyl)(methyl)amino)-3-fluoro-5-((4-(1-methyl-1H-indol-3-yl)-5,6-dihydrofuro[2,3-d]pyrimidin-2-yl)amino)phenyl)acetamide]	> 1000 nM
COc1cnc(-n2cc(-c3nc(Nc4ccc(N(C)CCN(C)C)c(NC(C)=O)c4)ncc3OC)c3ccccc32)nc1-c1c[nH]c2ccccc12 [Compound 272b, N-(5-(4-(1-(4-(1H-indol-3-yl)-5-methoxypyrimidin-2-yl)-1H-indol-3-yl)-5-methoxypyrimidin-2-ylamino)-2-((2-(dimethylamino)ethyl)(methyl)amino)phenyl)acetamide]	2060 nM
CCn1cc(-c2nc(Nc3ccc(N(C)CCN(C)C)c(NC(C)=O)c3)nc3[nH]ccc23)c2cc(F)ccc21 [Compound 246, N-(2-((2-(dimethylamino)ethyl)(methyl)amino)-5-((4-(1-ethyl-5-fluoro-1H-indol-3-yl)-7H-pyrrolo[2,3-d]pyrimidin-2-yl)amino)phenyl)acetamide]	69.9 nM
CN(C)CCN(C)c1ccc(Nc2ncc(C(F)(F)F)c(-c3cn(C)c4c(F)cccc34)n2)cc1N [Compound 347, N^1-(2-(dimethylamino)ethyl)-N^4-(4-(7-fluoro-1-methyl-1H-indol-3-yl)-5-(trifluoromethyl)pyrimidin-2-yl)-N^1-methylbenzene-1,2,4-triamine]	114 nM

Same assay, conditions: KM12-luc cells, treated with test compounds for 72 hrs, CCK-8 viability; read-out: NTRK IC50 in KM12-luc

SMILES	IC50
CC(=O)Nc1cc(Nc2ncc(Cl)c(-c3cn(C)c4c(C)cccc34)n2)ccc1N1CC[C@H](N(C)C)C1 [Compound S-432, (S)—N-(5-((5-chloro-4-(1,7-dimethyl-1H-indol-3-yl)pyrimidin-2-yl)amino)-2-(3-(dimethylamino)pyrrolidin-1-yl)phenyl)acetamide]	22.4 nM

Reference: patent publication US20250136576A1, “Heterocyclic Compounds and Uses Thereof” (ACEA Therapeutics, Inc., priority 2021, published 2025)
